Results published in US11235976B2, “Nanocarbon-iron composite system as well as composition, preparation method and use thereof” (Chongqing Lummy Pharmaceutical Co., LTD, priority 2017, dated 2022).

Tested on: HCT116 colon cancer cells
Experiment: Cell experiment, cell survival rate
Type: cell-based
Settings: iron preparation alone 13.65 μg/mL, 48 h
Protocol: (§1) Cells growing in a log phase are collected, the concentration of the cell suspension is adjusted, 100 μL of cell suspension is added to each well and the cells are plated (edge wells are filled with sterile PBS) at a density of 1×10^3-10^4 cells/well. The cells are incubated for 24 hours at 37° C. under the condition of 5% CO2, a nanocarbon-iron solution having a concentration gradient (nanocarbon content: 125, 62.5, 15.63 and 3.91 μg/mL; and ferric ion content: 13.65, 6.83, 1.71 and 0.43 μg/mL) is added, and three sub-wells are set. Then the cells are incubated for 48 hours at 37° C. under the condition of 5% CO2. 10 μL of CCK8 solution is added to each well and then the cells are continuously incubated for 2 hours. The absorbance of each well is measured at OD=450 nm with the microplate reader. In addition, a negative control group, nanocarbon control groups having the same concentration and iron preparation control groups having the same concentration are set.
as §1, with “and 1” for “100”, “of a 6-well plate” for “and the cells are plated (edge wells are filled with sterile PBS)”, “3×10^4” for “1×10^3-10^4”, “1.71,” for “1.71 and”, “The” for “10 μL of CCK8 solution is added to each well and then the”, “trypsinized and counted.” for “continuously incubated for 2 hours. The absorbance of each well is measured at OD=450 nm with the microplate reader.”

Substance	Cell Survival Rate [%]
ammonium ferric citrate	95.31

Tested on: murine liver cancer H22 cells
Experiment: Cell experiment, cell survival rate
Type: cell-based
Settings: iron preparation alone 0.43 μg/mL, 48 h
Protocol: as §1
as §1, with “and 1” for “100”, “of a 6-well plate” for “and the cells are plated (edge wells are filled with sterile PBS)”, “3×10^4” for “1×10^3-10^4”, “1.71,” for “1.71 and”, “The” for “10 μL of CCK8 solution is added to each well and then the”, “trypsinized and counted.” for “continuously incubated for 2 hours. The absorbance of each well is measured at OD=450 nm with the microplate reader.”

Substance	Cell Survival Rate [%]
ammonium ferric citrate	96.21

Same assay, conditions: iron preparation alone 1.71 μg/mL, 48 h

Substance	Cell Survival Rate [%]
ammonium ferric citrate	97.64

Same assay, conditions: iron preparation alone 6.83 μg/mL, 48 h

Substance	Cell Survival Rate [%]
ammonium ferric citrate	95.12

Same assay, conditions: iron preparation alone 13.65 μg/mL, 48 h

Substance	Cell Survival Rate [%]
ammonium ferric citrate	100

Tested on: TPC-1 thyroid cancer cells
Experiment: Cell experiment, cell survival rate
Type: cell-based
Settings: iron preparation alone 0.43 μg/mL, 48 h
Protocol: as §1
as §1, with “and 1” for “100”, “of a 6-well plate” for “and the cells are plated (edge wells are filled with sterile PBS)”, “3×10^4” for “1×10^3-10^4”, “1.71,” for “1.71 and”, “The” for “10 μL of CCK8 solution is added to each well and then the”, “trypsinized and counted.” for “continuously incubated for 2 hours. The absorbance of each well is measured at OD=450 nm with the microplate reader.”

Substance	Cell Survival Rate [%]
ammonium ferric citrate	97.30

Same assay, conditions: iron preparation alone 1.71 μg/mL, 48 h

Substance	Cell Survival Rate [%]
ammonium ferric citrate	96.41

Same assay, conditions: iron preparation alone 6.83 μg/mL, 48 h

Substance	Cell Survival Rate [%]
ammonium ferric citrate	100

Same assay, conditions: iron preparation alone 13.65 μg/mL, 48 h

Substance	Cell Survival Rate [%]
ammonium ferric citrate	100

Tested on: A549 lung cancer cells
Experiment: Cell experiment, cell survival rate
Type: cell-based
Settings: iron preparation alone 0.43 μg/mL, 48 h
Protocol: as §1
as §1, with “and 1” for “100”, “of a 6-well plate” for “and the cells are plated (edge wells are filled with sterile PBS)”, “3×10^4” for “1×10^3-10^4”, “1.71,” for “1.71 and”, “The” for “10 μL of CCK8 solution is added to each well and then the”, “trypsinized and counted.” for “continuously incubated for 2 hours. The absorbance of each well is measured at OD=450 nm with the microplate reader.”

Substance	Cell Survival Rate [%]
ammonium ferric citrate	97.21

Same assay, conditions: iron preparation alone 1.71 μg/mL, 48 h

Substance	Cell Survival Rate [%]
ammonium ferric citrate	99.64

Same assay, conditions: iron preparation alone 6.83 μg/mL, 48 h

Substance	Cell Survival Rate [%]
ammonium ferric citrate	95.76

Same assay, conditions: iron preparation alone 13.65 μg/mL, 48 h

Substance	Cell Survival Rate [%]
ammonium ferric citrate	94.67

Tested on: H22 metastatic lymph nodes
Experiment: Lymph node metastasis inhibition experiment
Type: in vivo, Kunming mouse
Settings: popliteal lymph nodes
Protocol: (§2) Milky white and thick ascites is extracted from the H22 tumor-bearing mice, the concentration is adjusted to be 3×10^7 cells/mL, 0.05 mL of cell suspension (about 1.5×10^6 cells) is inoculated subcutaneously into the left hind foot pads of each Kunming mouse, and thus a lymph node metastasis mouse model is obtained. The mice are treated when the diameter of the tumor reaches 6-8 mm and there is no ulcer and necrosis. The mice are randomly divided into four groups (10 mice per group): a negative control group (0.9% sodium chloride injection), a nanocarbon control group, an iron preparation control group and a nanocarbon-iron suspension experimental group. 10 days after inoculation, the mice are killed, and popliteal lymph nodes are collected, weighed and fixed for pathological examination.

Substance	Weight of Lymph Node [mg]
ammonium ferric citrate	53.94 ± 11.58

Tested on: subcutaneous transplantation tumors of 9 types of cancer cells
Experiment: Tumor growth inhibition experiments, subcutaneous transplantation tumors
Type: in vivo, mice
Settings: FIGS. 4-39
Protocol: Cells growing in a log phase are collected, the concentration of the cell suspension is adjusted to 3×10^7 cells/mL, and the cell suspension is inoculated subcutaneously into the right upper extremities of nude mice at the inoculation dosage of 0.1 mL (about 3×10^6 cells) per mouse. When the average tumor volume of the inoculated mice reaches 100 mm^3, the tumor-bearing mice are randomly divided into the following groups (8 nude mice per group): a negative control group (0.9% sodium chloride injection), a nanocarbon control group, an iron preparation control group, a nanocarbon-iron suspension experimental group, and a cis-platinum control group (intraperitoneal injection at the dosage of 5 mg/kg). The above various drugs are injected into the tumors. The tumor volume changes are recorded, and the formula for calculating the volume is Volume=(length×the square of width)/2.
Milky white and thick ascites is extracted from the H22 tumor-bearing mice, the concentration of the cell suspension is adjusted to be 3×10^7 cells/mL, 0.1 mL of cell suspension (about 3×10^6 cells) is inoculated subcutaneously into the right upper extremity of each of Kunming mice. When the average tumor volume of the inoculated mice reaches 100 mm^3, the tumor-bearing mice are randomly divided into the following groups (8 mice per group): a negative control group (0.9% sodium chloride injection), a nanocarbon control group, an iron preparation control group, a nanocarbon-iron suspension experimental group, and a cis-platinum control group (intraperitoneal injection at the dosage of 5 mg/kg). The above various drugs are injected into the tumors. The tumor volume changes are recorded, and the formula for calculating the volume is Volume=(length×the square of width)/2.

Substance	inhibition effect on growth of 9 types of tumors
ammonium ferric citrate	do not have an inhibition effect

Tested on: lymph node metastasis of 9 types of tumor cells
Experiment: Lymph node metastasis inhibition experiment, summary
Type: in vivo, mice
Settings: not given
Protocol: as §2, with “Cells growing in a log phase are collected,” for “Milky white and thick ascites is extracted from the H22 tumor-bearing mice,”, “concentration of the cell suspension” for “concentration”, “to” for “to be”, “the” for “0.05 mL of”, “suspension” for “suspension (about 1.5×10^6 cells)”, “nude mouse at the inoculation volume of 0.05 mL (about 1.5×10^6 cells)” for “Kunming mouse,”
as §2

Substance	inhibition effect on the metastatic lymph nodes
ammonium ferric citrate	do not have an inhibition effect

Tested on: Hela metastatic lymph nodes
Experiment: Lymph node metastasis inhibition experiment
Type: in vivo, nude mouse
Settings: popliteal lymph nodes
Protocol: as §2, with “Cells growing in a log phase are collected,” for “Milky white and thick ascites is extracted from the H22 tumor-bearing mice,”, “concentration of the cell suspension” for “concentration”, “to” for “to be”, “the” for “0.05 mL of”, “suspension” for “suspension (about 1.5×10^6 cells)”, “nude mouse at the inoculation volume of 0.05 mL (about 1.5×10^6 cells)” for “Kunming mouse,”

Substance	Weight of Lymph Node [mg]
ammonium ferric citrate	30.94 ± 10.68

Tested on: SMMC-7721 metastatic lymph nodes
Experiment: Lymph node metastasis inhibition experiment
Type: in vivo, nude mouse
Settings: popliteal lymph nodes
Protocol: as §2, with “Cells growing in a log phase are collected,” for “Milky white and thick ascites is extracted from the H22 tumor-bearing mice,”, “concentration of the cell suspension” for “concentration”, “to” for “to be”, “the” for “0.05 mL of”, “suspension” for “suspension (about 1.5×10^6 cells)”, “nude mouse at the inoculation volume of 0.05 mL (about 1.5×10^6 cells)” for “Kunming mouse,”

Substance	Weight of Lymph Node [mg]
ammonium ferric citrate	56.98 ± 17.59

Tested on: TPC-1 metastatic lymph nodes
Experiment: Lymph node metastasis inhibition experiment
Type: in vivo, nude mouse
Settings: popliteal lymph nodes
Protocol: as §2, with “Cells growing in a log phase are collected,” for “Milky white and thick ascites is extracted from the H22 tumor-bearing mice,”, “concentration of the cell suspension” for “concentration”, “to” for “to be”, “the” for “0.05 mL of”, “suspension” for “suspension (about 1.5×10^6 cells)”, “nude mouse at the inoculation volume of 0.05 mL (about 1.5×10^6 cells)” for “Kunming mouse,”

Substance	Weight of Lymph Node [mg]
ammonium ferric citrate	41.97 ± 20.12

Tested on: HCT116 metastatic lymph nodes
Experiment: Lymph node metastasis inhibition experiment
Type: in vivo, nude mouse
Settings: popliteal lymph nodes
Protocol: as §2, with “Cells growing in a log phase are collected,” for “Milky white and thick ascites is extracted from the H22 tumor-bearing mice,”, “concentration of the cell suspension” for “concentration”, “to” for “to be”, “the” for “0.05 mL of”, “suspension” for “suspension (about 1.5×10^6 cells)”, “nude mouse at the inoculation volume of 0.05 mL (about 1.5×10^6 cells)” for “Kunming mouse,”

Substance	Weight of Lymph Node [mg]
ammonium ferric citrate	49.57 ± 20.67

Tested on: SGC-7901 metastatic lymph nodes
Experiment: Lymph node metastasis inhibition experiment
Type: in vivo, nude mouse
Settings: popliteal lymph nodes
Protocol: as §2, with “Cells growing in a log phase are collected,” for “Milky white and thick ascites is extracted from the H22 tumor-bearing mice,”, “concentration of the cell suspension” for “concentration”, “to” for “to be”, “the” for “0.05 mL of”, “suspension” for “suspension (about 1.5×10^6 cells)”, “nude mouse at the inoculation volume of 0.05 mL (about 1.5×10^6 cells)” for “Kunming mouse,”

Substance	Weight of Lymph Node [mg]
ammonium ferric citrate	43.69 ± 8.97

Tested on: MDA-MB-231 metastatic lymph nodes
Experiment: Lymph node metastasis inhibition experiment
Type: in vivo, nude mouse
Settings: popliteal lymph nodes
Protocol: as §2, with “Cells growing in a log phase are collected,” for “Milky white and thick ascites is extracted from the H22 tumor-bearing mice,”, “concentration of the cell suspension” for “concentration”, “to” for “to be”, “the” for “0.05 mL of”, “suspension” for “suspension (about 1.5×10^6 cells)”, “nude mouse at the inoculation volume of 0.05 mL (about 1.5×10^6 cells)” for “Kunming mouse,”

Substance	Weight of Lymph Node [mg]
ammonium ferric citrate	46.97 ± 10.36

Tested on: A549 metastatic lymph nodes
Experiment: Lymph node metastasis inhibition experiment
Type: in vivo, nude mouse
Settings: popliteal lymph nodes
Protocol: as §2, with “Cells growing in a log phase are collected,” for “Milky white and thick ascites is extracted from the H22 tumor-bearing mice,”, “concentration of the cell suspension” for “concentration”, “to” for “to be”, “the” for “0.05 mL of”, “suspension” for “suspension (about 1.5×10^6 cells)”, “nude mouse at the inoculation volume of 0.05 mL (about 1.5×10^6 cells)” for “Kunming mouse,”

Substance	Weight of Lymph Node [mg]
ammonium ferric citrate	45.67 ± 10.68

Tested on: SKOV3 metastatic lymph nodes
Experiment: Lymph node metastasis inhibition experiment
Type: in vivo, nude mouse
Settings: popliteal lymph nodes
Protocol: as §2, with “Cells growing in a log phase are collected,” for “Milky white and thick ascites is extracted from the H22 tumor-bearing mice,”, “concentration of the cell suspension” for “concentration”, “to” for “to be”, “the” for “0.05 mL of”, “suspension” for “suspension (about 1.5×10^6 cells)”, “nude mouse at the inoculation volume of 0.05 mL (about 1.5×10^6 cells)” for “Kunming mouse,”

Substance	Weight of Lymph Node [mg]
ammonium ferric citrate	32.98 ± 6.42
